Data reported in ChEMBL document CHEMBL5352411, “Synthesis and investigation of the trypanocidal potential of novel 1,2,3-triazole-selenide hybrids” (Eur J Med Chem, 2022).

Test system: not listed separately
Experiment: Electrochemical behavior of the compound assessed as oxidation onset potential by cyclic voltammetry analysis relative to normal hydrogen electrode
Type: physicochemical
Conditions: not given

First: Clc1ccc(-n2cc(C[Se]c3ccccc3)nn2)cc1
Second: Clc1ccc([Se]Cc2cn(-c3ccccc3)nn2)cc1
The Ep of the first is lower: 0.81 V for the first, 0.84 V for the second.

First: O=[N+]([O-])c1ccc(-n2cc(C[Se]c3ccccc3)nn2)cc1
Second: Cc1ccc(-n2cc(C[Se]c3ccccc3)nn2)cc1
The Ep of the first is higher: 0.9 V for the first, 0.85 V for the second.

Compared with `c1ccc(SCc2cn(-c3ccccc3)nn2)cc1`, `c1ccc([Se]Cc2cn(-c3ccccc3)nn2)cc1` is lower in Ep: 1.06 V for the first, 0.79 V for the second.

`Clc1ccccc1-n1cc(C[Se]c2ccccc2)nn1` and `Cc1ccccc1-n1cc(C[Se]c2ccccc2)nn1` are the same in Ep: 0.83 V for the first, 0.83 V for the second.

Compared with `Fc1ccc([Se]Cc2cn(-c3ccccc3)nn2)cc1`, `Cc1ccc([Se]Cc2cn(-c3ccccc3)nn2)cc1` is higher in Ep: 0.76 V for the first, 0.81 V for the second.

First: Cc1cccc(-n2cc(C[Se]c3ccccc3)nn2)c1
Second: COc1ccc(-n2cc(C[Se]c3ccccc3)nn2)cc1
The Ep of the first is higher: 0.84 V for the first, 0.75 V for the second.

First: Cc1cc(C)c([Se]Cc2cn(-c3ccccc3)nn2)c(C)c1
Second: c1ccc(-n2cc(C[Se]c3cccs3)nn2)cc1
The Ep of the first is lower: 1.03 V for the first, 1.22 V for the second.

Compared with `FC(F)(F)c1cccc([Se]Cc2cn(-c3ccccc3)nn2)c1`, `c1ccc(-n2cc(C[Se]c3cccc4ccccc34)nn2)cc1` is lower in Ep: 0.97 V for the first, 0.96 V for the second.

Test system: not listed separately
Experiment: Cytotoxicity against HFF-1 cells incubated for 72 hrs by MTS tetrazolium assay
Type: toxicity, cell-based
Conditions: human

`Clc1ccc(-n2cc(C[Se]c3ccccc3)nn2)cc1` and `Clc1ccc([Se]Cc2cn(-c3ccccc3)nn2)cc1` cannot be ordered by CC50 at 72 h: > 64 µM for the first, > 64 µM for the second.

Compared with `Cc1ccc(-n2cc(C[Se]c3ccccc3)nn2)cc1`, `Cc1ccc([Se]Cc2cn(-c3ccccc3)nn2)cc1` is lower in CC50 at 72 h: > 64 µM for the first, 56.1 µM for the second.

Compared with `Clc1ccccc1-n1cc(C[Se]c2ccccc2)nn1`, `c1ccc([Se]Cc2cn(-c3ccccc3)nn2)cc1` is lower in CC50 at 72 h: > 64 µM for the first, 48 µM for the second.

First: Fc1ccc([Se]Cc2cn(-c3ccccc3)nn2)cc1
Second: COc1ccc(-n2cc(C[Se]c3ccccc3)nn2)cc1
The CC50 at 72 h of the first is lower: 62.5 µM for the first, > 64 µM for the second.

`Cc1cccc(-n2cc(C[Se]c3ccccc3)nn2)c1` and `FC(F)(F)c1cccc([Se]Cc2cn(-c3ccccc3)nn2)c1` cannot be ordered by CC50 at 72 h: > 64 µM for the first, > 64 µM for the second.

`O=C(Cn1ccnc1[N+](=O)[O-])NCc1ccccc1` [BENZNIDAZOLE] and `c1ccc(-n2cc(C[Se]c3cccc4ccccc34)nn2)cc1` cannot be ordered by CC50 at 72 h: > 64 µM for the first, > 64 µM for the second.

Molecule `c1ccc(-n2cc(C[Se]c3cccs3)nn2)cc1` has a CC50 at 72 h of 43.1 µM.

Test system: Trypanosoma cruzi
Experiment: Antitrypanosomal activity against intracellular amastigote form of Trypanosoma cruzi Tulahuen expressing Escherichia coli LacZ gene infected in HFF-1 cells incubated for 120 hrs by automated microplate reader
Type: functional, organism-based
Conditions: HFF-1, 120 h

`Clc1ccc(-n2cc(C[Se]c3ccccc3)nn2)cc1` and `Clc1ccc([Se]Cc2cn(-c3ccccc3)nn2)cc1` are within 1.5-fold of each other in IC50: 11.5 µM for the first, 16.8 µM for the second.

First: O=[N+]([O-])c1ccc(-n2cc(C[Se]c3ccccc3)nn2)cc1
Second: Cc1ccc(-n2cc(C[Se]c3ccccc3)nn2)cc1
The IC50 of the first is higher: > 64 µM for the first, 9.3 µM for the second.

Compared with `c1ccc(SCc2cn(-c3ccccc3)nn2)cc1`, `c1ccc([Se]Cc2cn(-c3ccccc3)nn2)cc1` is 2.6-fold lower in IC50: 21.2 µM for the first, 8.2 µM for the second. The second is the more potent here.

Compared with `Clc1ccccc1-n1cc(C[Se]c2ccccc2)nn1`, `Cc1ccccc1-n1cc(C[Se]c2ccccc2)nn1` is 1.6-fold lower in IC50: 15.2 µM for the first, 9.8 µM for the second.

Going from `Fc1ccc([Se]Cc2cn(-c3ccccc3)nn2)cc1` to `Cc1ccc([Se]Cc2cn(-c3ccccc3)nn2)cc1`, the IC50 falls from 11.6 µM to 7.4 µM (1.6-fold).

`Cc1cccc(-n2cc(C[Se]c3ccccc3)nn2)c1` and `COc1ccc(-n2cc(C[Se]c3ccccc3)nn2)cc1` are within 1.5-fold of each other in IC50: 9.2 µM for the first, 12.7 µM for the second.

Going from `Cc1cc(C)c([Se]Cc2cn(-c3ccccc3)nn2)c(C)c1` to `c1ccc(-n2cc(C[Se]c3cccs3)nn2)cc1`, the IC50 falls from 39.2 µM to 15.6 µM (2.5-fold). The second is the more potent here.

Going from `FC(F)(F)c1cccc([Se]Cc2cn(-c3ccccc3)nn2)c1` to `c1ccc(-n2cc(C[Se]c3cccc4ccccc34)nn2)cc1`, the IC50 falls from 5.4 µM to 3.1 µM (1.7-fold).

`O=C(Cn1ccnc1[N+](=O)[O-])NCc1ccccc1` [BENZNIDAZOLE] showed an IC50 of 2.1 µM.

Test system: not listed separately
Experiment: Selectivity index, ratio of CC50 for HFF-1 cells to IC50 for intracellular amastigote form of Trypanosoma cruzi Tulahuen expressing Escherichia coli LacZ gene infected in HFF-1 cells
Type: toxicity
Conditions: human, read-out: Selectivity Index

Compared with `Clc1ccc(-n2cc(C[Se]c3ccccc3)nn2)cc1`, `Clc1ccc([Se]Cc2cn(-c3ccccc3)nn2)cc1` is lower in selectivity ratio: > 5.6 for the first, 3.3 for the second.

`Cc1ccc(-n2cc(C[Se]c3ccccc3)nn2)cc1` and `Cc1ccc([Se]Cc2cn(-c3ccccc3)nn2)cc1` cannot be ordered by selectivity ratio: > 6.9 for the first, 8.4 for the second.

`Clc1ccccc1-n1cc(C[Se]c2ccccc2)nn1` and `Cc1ccccc1-n1cc(C[Se]c2ccccc2)nn1` cannot be ordered by selectivity ratio: > 4.2 for the first, > 6.5 for the second.

`Fc1ccc([Se]Cc2cn(-c3ccccc3)nn2)cc1` and `c1ccc([Se]Cc2cn(-c3ccccc3)nn2)cc1` cannot be ordered by selectivity ratio: > 5.5 for the first, 5.9 for the second.

`Cc1cccc(-n2cc(C[Se]c3ccccc3)nn2)c1` and `COc1ccc(-n2cc(C[Se]c3ccccc3)nn2)cc1` cannot be ordered by selectivity ratio: > 7 for the first, > 5 for the second.

Going from `FC(F)(F)c1cccc([Se]Cc2cn(-c3ccccc3)nn2)c1` to `c1ccc(-n2cc(C[Se]c3cccs3)nn2)cc1`, the selectivity ratio falls from > 11.9 to 2.8.

`O=C(Cn1ccnc1[N+](=O)[O-])NCc1ccccc1` [BENZNIDAZOLE] and `c1ccc(-n2cc(C[Se]c3cccc4ccccc34)nn2)cc1` cannot be ordered by selectivity ratio: > 30.5 for the first, > 20.6 for the second.

Test system: not listed separately
Experiment: Electrochemical behavior of the compound assessed as reduction onset potential by cyclic voltammetry analysis relative to normal hydrogen electrode
Type: physicochemical
Conditions: not given

Compared with `O=[N+]([O-])c1ccc(-n2cc(C[Se]c3ccccc3)nn2)cc1`, `FC(F)(F)c1cccc([Se]Cc2cn(-c3ccccc3)nn2)c1` is higher in Ep: -1.11 V for the first, -0.92 V for the second.

For `c1ccc(-n2cc(C[Se]c3cccc4ccccc34)nn2)cc1`, the Ep was -0.82 V.
